Laboratory results taken from patent publication US20250129095A1, “ANNULATED 2-AMINO-3-CYANO THIOPHENES AND DERIVATIVES FOR THE TREATMENT OF CANCER” (Boehringer Ingelheim Int'l GmbH Corp., priority 2021, published 2025).
Converted amounts (≈) assume the structure as drawn. Like-named read-outs stand apart in the source and are kept apart here.

How the values were obtained:
[1] = target: KRAS G12D Ba/F3 (Homo sapiens, UniProt P01116, G12D, cells depend on it); experiment: Ba/F3 proliferation assay, KRAS G12D; assay type: cell-based; conditions: 72 h, AlamarBlue, read-out: KRAS G12D Ba/F3 IC50
Sequence of KRAS G12D Ba/F3 (P01116 whole entry G12D, canonical isoform): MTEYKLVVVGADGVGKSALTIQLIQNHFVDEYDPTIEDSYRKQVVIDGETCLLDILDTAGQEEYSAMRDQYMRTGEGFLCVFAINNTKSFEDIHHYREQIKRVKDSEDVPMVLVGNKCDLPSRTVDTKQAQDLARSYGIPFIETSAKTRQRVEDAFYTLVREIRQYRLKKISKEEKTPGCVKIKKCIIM
Protocol: Plasmids containing KRASG12 mutants(i.e. G12D, G12C, G12V) are obtained from GeneScript. To generate KRASG12-dependent Ba/F3 models, Ba/F3 cells are transduced with retroviruses containing vectors that harbor KRASG12 isoforms. Platinum-E cells (Cell Biolabs) are used for retrovirus packaging. Retrovirus is added to Ba/F3 cells. To ensure infection, 4 μg/mL polybrene is added and cells are spinfected. […] Cells with an infection efficiency of 10% to 20% are further cultivated and puromycin selection with 1 μg/mL is initiated. As a control, parental Ba/F3 cells are used to show selection status. Selection is considered successful when parental Ba/F3 cells cultures died. To evaluate the transforming potential of KRASG12 mutations, the growth medium is no longer supplemented with IL-3. Ba/F3 cells harboring the empty vector are used as a control. Approximately ten days before conducting the experiments, puromycin is left out.
Compounds are added using an Access Labcyte Workstation with a Labcyte Echo 550 or 555 accoustic dispenser. All treatments are performed in technical duplicates. […] AlamarBlue™ (ThermoFisher), a viability stain, is added and fluorescence measured in the PerkinElmer Envision HTS Multilabel Reader. The raw data are imported into and analyzed with the Boehringer Ingelheim proprietary software MegaLab (curve fitting based on the program PRISM, GraphPad Inc.).

[2] = system: NCI-H2122 cells; experiment: NCI-H2122 CTG proliferation assay (120 h) (NSCLC, G12C); assay type: cell-based; conditions: Homo sapiens
Protocol: The CTG assay is designed to measure quantitatively the proliferation of NCI-H2122 cells (ATCC CRL-5985), using the CellTiter Glow Assay Kit (Promega G7571). Cells are grown in RPMI medium (ATCC) supplemented with Fetal Calf Serum (Life Technologies, Gibco BRL, Cat. No. 10270-106). On “day 0” 200 NCI-H2122 cells are seeded in 60 μL RPMI ATCC+10% FCS+Penstrep in a black 384-well plate, flat and clear bottom (Greiner, PNr. 781091). Cells are then incubated in the plates at 37° C. in a CO2 incubator overnight. On day 1, compounds (10 mM stock in DMSO) are added with the ECHO acoustic liquid handler system (Beckman Coulter), including DMSO controls. Plates are incubated for 120 h, and cell viability is measured using CellTiter-Glo luminescent cell viability reagent (Promega product code G7570). Viability (stated as percent of control) is defined as relative luminescence units RLU of each well divided by the RLU of cells in DMSO controls. […] values are determined from viability measurements by non-linear regression using a four parameter model. • AsPC-1 CTG proliieradon assay (120 h) (pancreatic cancer, G12D)

[3] = system: SAS cells; experiment: SAS CTG proliferation assay (120 h) (HNSCC, wt amplified); assay type: cell-based
Protocol: (§1) SAS cells (JCRB0260) are dispensed into 384-well plates, flat and clear bottom (Greiner, PNr. 781091) at a density of 300 cells per well in 60 μL DMEM:F12 (Gibco 31330-038)+10% Fetal Calf Serum (HyClone, PNr.: SH30084.03) and incubated at 37° C. in a CO2 incubator overnight The next day, compounds (10 mM stock in DMSO) are added with the ECHO acoustic liquid handler system (Beckman Coulter), including DMSO controls. Plates are incubated for 120 h, and cell viability is measured using CellTiter-Glo luminescent cell viability reagent (Promega product code G7570). Viability (stated as percent of control) is defined as relative luminescence units RLU of each well divided by the RLU of cells in DMSO controls.

[4] = system: SK-CO-1 cells; experiment: SK-CO-1 CTG proliferation assay (120 h) (CRC, G12V); assay type: cell-based; conditions: Homo sapiens
Protocol: as §1, with “SK-CO-1 cells (ATCC” for “SAS cells (JCRB0260)”, “SK-CO-1 cells (ATCC HTB-39) are dispensed” for “SAS cells (JCRB0260) are dispensed”, “density of 500 cells per” for “density of 300 cells per”, “60 μL EMEM (Sigma M5650)+10% Fetal Calf” for “60 μL DMEM:F12 (Gibco 31330-038)+10% Fetal Calf”, “CO2 incubator overnight. The next” for “CO2 incubator overnight The next”

[5] = Plasma protein binding assay (PPB), equilibrium dialysis; assay type: in vitro ADME; conditions: bovine, 10% FCS in PBS, read-out: PPB 10% FCS (% fu)
Protocol: Binding of test compounds to plasma was determined using equilibrium dialysis (ED) and quantitative mass spectrometry interfaced with liquid chromatography (LC-MS). In brief, ED was performed with dialysis devices consisting of two chambers separated by a semipermeable membrane with a molecular weight cut-off of 5-10 kg/mol. One chamber was filled with 10% FCS in PBS containing 1-10 μmol/L test compound and the other chamber was filled with phosphate-buffer saline (PBS) with or without dextran. The dialysis chamber was incubated for 3-5 hours at 37° C. After incubation, protein was precipitated from aliquots of each chamber and the concentration of test compound in the supernatant of the plasma-containing compartment (cserum) and of the buffer-containing compartment (cbuffer) was determined by LC-MS. The fraction of unbound test compound (not bound to plasma) (fu) was calculated according to the following equation: […]

[6] = Solubility measurement (DMSO solution precipitation method); assay type: physicochemical; conditions: aqueous buffer, kinetic from dmso stock
Protocol: The DMSO solution is diluted with an aqueous medium (McIlvaine buffer with pH=4.5 or 6.8) to a final concentration of 250 μM. After 24 h of shaking at ambient temperature a potentially formed precipitate is removed by filtration. The concentration of the test compound in the filtrate is determined by LC-UV methods by calibrating the signal to the signal of a reference solution with complete dissolution of the test compound in acetonitrile/water (1:1) with known concentration.

[7] = McIlvaine buffer pH 4.5, 24 h, read-out: Solubility [μg/ml] pH 4.5
[8] = McIlvaine buffer pH 6.8, 24 h, read-out: Solubility [μg/ml] pH 6.8

| SMILES | GI50 [1] [nM] | IC50 [2] [nM] | IC50 [3] [nM] | IC50 [4] [nM] | fraction unbound [5] | solubility at 24 h [6, 7] [µg/mL] | solubility at 24 h [6, 8] [µg/mL] |
| --- | --- | --- | --- | --- | --- | --- | --- |
| COCCOc1cc(O[C@@H](C)[C@@H]2CCCN2C)nc(-c2noc3c2CCC[C@@]32CCCc3sc(N)c(C#N)c32)n1 [II-5] | 38 | 861 | 67 | 23 | 0.5 | > 140 | 108 (≈ 191 µM) |
| C[C@H](Oc1cc(OCCO)nc(-c2noc3c2CCC[C@@]32CCCc3sc(N)c(C#N)c32)n1)[C@@H]1CCCN1C [II-6] | 16 | 1650 | 40 | 88 | 0.72 | > 121 | > 119 |
| C[C@H](Oc1cc(Oc2cnccn2)nc(-c2noc3c2CCC[C@@]32CCCc3sc(N)c(C#N)c32)n1)[C@@H]1CCCN1C [II-7] | 10 | 997 | 1390 | 21 | 0.28 | > 118 | 90 (≈ 154 µM) |
| C[C@H](Oc1cc(N(C)C)nc(-c2noc3c2CCC[C@@]32CCCc3sc(N)c(C#N)c32)n1)[C@@H]1CCCN1C [II-10] | 81 | 2420 | 795 | 1200 | 0.08 | > 107 | 95 (≈ 178 µM) |
| C[C@H](Oc1cc(Nc2nccs2)nc(-c2noc3c2CCC[C@@]32CCCc3sc(N)c(C#N)c32)n1)[C@@H]1CCCN1C [II-12] | 65 | 1740 | 594 | 308 | 0.07 | 2 (≈ 3.4 µM) | < 1 |
| C[C@H](Oc1cc(Nc2ncco2)nc(-c2noc3c2CCC[C@@]32CCCc3sc(N)c(C#N)c32)n1)[C@@H]1CCCN1C [II-13] | 37 | 532 | 46 | 69 | 0.2 | > 157 | 44 (≈ 76.8 µM) |
| C[C@H](Oc1cc(Nc2cnccn2)nc(-c2noc3c2CCC[C@@]32CCCc3sc(N)c(C#N)c32)n1)[C@@H]1CCCN1C [II-14] | 59 | 1420 | 285 | 115 | 0.1 | 67 (≈ 115 µM) | 11 (≈ 18.8 µM) |
| C[C@H](Oc1cc(Nc2ncccn2)nc(-c2noc3c2CCC[C@@]32CCCc3sc(N)c(C#N)c32)n1)[C@@H]1CCCN1C [II-17] | 33 | 1650 | 104 | 60 | 0.28 | 67 (≈ 115 µM) | < 1 |
| C[C@H](Oc1cc(O[C@H]2CN(C)C(C)(C)C2)nc(-c2noc3c2CCC[C@@]32CCCc3sc(N)c(C#N)c32)n1)[C@@H]1CCCN1C [II-19] | 91 | 1460 | 297 | 933 | 0.12 | > 161 | > 164 |
| C[C@H](Oc1cc(N(C)CCN(C)C)nc(-c2noc3c2CCC[C@@]32CCCc3sc(N)c(C#N)c32)n1)[C@@H]1CCCN1C [II-20] | 304 | 4700 | 327 | 900 | 0.8 | > 144 | > 142 |
| C[C@H](Oc1cc(OCC2(N(C)C)CC2)nc(-c2noc3c2CCC[C@@]32CCCc3sc(N)c(C#N)c32)n1)[C@@H]1CCCN1C [II-21] | 22 | 2200 | 577 | 977 | 0.72 | > 143 | > 126 |
| C[C@H](Oc1cc(OCC2(N(C)C)COC2)nc(-c2noc3c2CCC[C@@]32CCCc3sc(N)c(C#N)c32)n1)[C@@H]1CCCN1C [II-22] | 6 | 1710 | 84 | 354 | 0.46 | > 168 | > 157 |
| COc1c(OCC2(N(C)C)COC2)nc(-c2noc3c2CCC[C@@]32CCCc3sc(N)c(C#N)c32)nc1O[C@@H](C)[C@@H]1CCCN1C [II-25] | 15 | 389 | 55 | 326 | 0.48 | > 163 | > 152 |
| C[C@H]1CN(C)CCCN1c1cc(O[C@@H]2CNC2(C)C)nc(-c2noc3c2CCC[C@@]32CCCc3sc(N)c(C#N)c32)n1 [II-28] | 130 | 9740 | 4450 | 2590 | 0.59 | > 151 | > 146 |
| CO[C@@H]1C[C@@H]([C@H](C)Oc2cc(O[C@@H]3CNC3(C)C)nc(-c3noc4c3CCC[C@@]43CCCc4sc(N)c(C#N)c43)n2)N(C)C1 [II-30] | 5 | 1220 | 267 | 260 | 0.3 | > 171 | > 165 |
| C[C@H](Oc1cc(O[C@@H]2CNC2(C)C)nc(-c2noc3c2CCC[C@@]32CCCc3sc(N)c(C#N)c32)n1)[C@@H]1C[C@@H](F)CN1C [II-31] | 3 | 1210 | 402 | 394 | 0.31 | > 157 | > 143 |
